Among the data in patent publication US11319306B2, “Compositions and methods for treating neurodegenerative diseases” (Azevan Pharmaceuticals, Inc., priority 2014, dated 2022) are IC50 and Ki values, retold here.

In general, IC50 refers to the midpoint of a concentration-inhibition curve. What is called Ki is a measure of affinity in units of concentration, obtained from inhibition or displacement.

The target in one experiment is T1, human V1a receptor (Homo sapiens, UniProt P37288).
T1 construct: host or cells: CHO cells (hV1a cell line)
T1 sequence (P37288 whole entry): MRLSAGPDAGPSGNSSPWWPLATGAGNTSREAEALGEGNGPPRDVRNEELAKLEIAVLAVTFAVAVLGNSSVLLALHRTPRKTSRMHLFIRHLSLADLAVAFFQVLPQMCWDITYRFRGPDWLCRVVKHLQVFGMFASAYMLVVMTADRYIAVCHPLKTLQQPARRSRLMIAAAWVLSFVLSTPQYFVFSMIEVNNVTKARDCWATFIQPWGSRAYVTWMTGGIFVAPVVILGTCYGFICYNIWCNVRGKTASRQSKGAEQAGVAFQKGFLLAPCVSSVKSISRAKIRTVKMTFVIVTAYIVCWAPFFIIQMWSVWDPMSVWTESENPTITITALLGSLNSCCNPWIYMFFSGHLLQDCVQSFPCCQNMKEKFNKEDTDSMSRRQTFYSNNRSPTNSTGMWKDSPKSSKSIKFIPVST
Briefly: Human vasopressin V1a receptor binding assay (3H-AVP competition, hV1a CHO cells). In short, it runs like this: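 Whole CHO cells expressing hV1a were incubated with 1 nM 3H-AVP (as printed "InM") and 10-fold dilutions of compound in HEPES/BSA/DMEM buffer, pH 7.0, for 45 min at 37 °C. Non-specific binding was defined with 100 nM cold AVP. Bound radioactivity was SDS-solubilised and counted by scintillation; IC50 from curve fitting.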

For a further experiment, the target named is T2, V1b receptor (Homo sapiens, UniProt P47901).
T2 construct: expressed in transfected cells; host or cells: CHO-K1 (ATCC), vector pCI-neo, G418-selected clones
T2 sequence (P47901 1-424): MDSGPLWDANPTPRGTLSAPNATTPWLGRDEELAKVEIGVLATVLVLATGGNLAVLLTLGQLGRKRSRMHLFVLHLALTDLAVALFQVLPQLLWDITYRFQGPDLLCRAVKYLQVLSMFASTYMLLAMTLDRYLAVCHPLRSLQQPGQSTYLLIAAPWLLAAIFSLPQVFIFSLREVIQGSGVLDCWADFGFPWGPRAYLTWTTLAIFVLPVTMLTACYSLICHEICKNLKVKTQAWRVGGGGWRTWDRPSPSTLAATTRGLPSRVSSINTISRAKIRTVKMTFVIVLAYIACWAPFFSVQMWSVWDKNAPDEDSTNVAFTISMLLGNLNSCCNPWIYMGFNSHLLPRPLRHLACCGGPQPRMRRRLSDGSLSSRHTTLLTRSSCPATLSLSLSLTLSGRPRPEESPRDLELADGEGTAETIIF
The experiment is described as follows: Human or rat vasopressin V1b cell-based receptor binding assay. Particulars: receptor selectivity table; read-out: inhibition data Ki, V1b. The text has this:
Human vasopression V1b receptor-expressing cells. Human vasopressin receptor 1b (hV1b) cDNA (see, Lolait et al., “Extrapituitary expression of the rat V1b vasopressin receptor gene” Proc. Natl. Acad. Sci. USA. 92:6783-7 (1995); de Keyzer et al., “Cloning and characterization of the human V3(V1b) pituitary vasopressin receptor” FEBS Lett. 356:215-20 (1994); Sugimoto et al., “Molecular cloning and functional expression of a cDNA encoding the human V1b vasopressin receptor” J. Biol. Chem. 269:27088-92 (1994)) was inserted into a mammalian cell expression vector PCI-neo (Promega) at EcoR1 site. The recombinant plasmid carrying hV1b cDNA was identified from transformed E. Coli clones and used for the transfection of Chinese hamster ovary cell (CHO-Kl, ATCC). Two micrograms of hV1b receptor DNA was introduced into 10^5 CHO cells cultured in 6-well plate, using Fugene-6 mediated transfection technique (Boehringer Mannheim). Twenty-four hrs post transfection, Cells were then cultured under selection of G-418 (0.25 mg/ml) supplemented to the culture medium. Three days later, limited dilution was carried out to obtain single cell clones in 96-well plates. […]
Human or rat vasopression V1b cell-based receptor binding assay. […] Samples were counted in a liquid scintillation counter (Beckman LS3801). IC50 and Ki values were calculated using Prism Curve fitting software. […]

In a further experiment the target is V2 (Homo sapiens, UniProt P30518). The experiment is described as follows: V2 receptor inhibition data (Ki). The class given is binding. To be noted: receptor selectivity table.
V2, sequence (P30518 whole entry): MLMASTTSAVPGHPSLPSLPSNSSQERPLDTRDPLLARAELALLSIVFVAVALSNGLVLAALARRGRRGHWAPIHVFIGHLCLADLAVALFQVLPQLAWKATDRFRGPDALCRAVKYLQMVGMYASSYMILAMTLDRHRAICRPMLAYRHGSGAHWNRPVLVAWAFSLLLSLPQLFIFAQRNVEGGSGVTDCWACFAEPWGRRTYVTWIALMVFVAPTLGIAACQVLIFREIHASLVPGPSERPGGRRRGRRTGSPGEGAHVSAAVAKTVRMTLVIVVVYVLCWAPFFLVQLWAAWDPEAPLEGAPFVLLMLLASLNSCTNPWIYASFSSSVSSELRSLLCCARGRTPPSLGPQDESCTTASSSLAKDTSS

Each structure is given as a SMILES string. Read-outs that look alike come from different tables or passages of the source.

With `C[C@@H](NC(=O)[C@@H](CC(=O)N1CCC(N2CCCCC2)CC1)N1C(=O)[C@@H](N2C(=O)OC[C@@H]2c2ccccc2)[C@H]1/C=C/c1cccc(I)c1)c1ccccc1` [Example 266], the half-inhibitory concentration (IC50) at human V1a receptor (3H-AVP competition, CHO cells expressing human V1a, read-out: V1a Binding Affinity IC50) amounted to 1.8 nM. In addition, the Ki on human V1a receptor (3H-AVP competition, CHO cells expressing human V1a, read-out: V1a Ki) was 1.1 nM; at human V1a receptor (receptor selectivity table, read-out: inhibition data Ki, V1a), 1.1 nM; at V1b receptor, over 100 nM; at V2, over 1000 nM.
